In US4959482A, “Pyrrolidinone compounds and pharamaceutical compositions containing same” (Biofor, Ltd., priority 1988, dated 1990):

What was measured:
[1] = U.S. Pat. No. 4,357,345; cited from earlier work
[2] = Khimiya Geterotsiklicheskikh Soedinenii, Vol. 12: 1660-1664 (1971); cited from earlier work
yeast-induced fever = assay: Antipyretic Evaluation (yeast-induced fever in rats); type: in vivo, male Sprague-Dawley rats; conditions: 300 mg/kg, oral by gavage nineteen hours after yeast injection
Description: Antipyretic: This activity was evaluated by creating a yeast-induced fever in rats according to a modified method of the procedure described by Loux et al in "Toxicology and Applied Pharmacology", Vol. 22: page 672 (1972). In this assay rats injected with yeast in distilled water were dosed with test compounds, aspirin (positive control) and a vehicle (negative control) and the observed differences in body temperature were analyzed statistically.
Antipyretic activity was evaluated using a modification of the test described by Loux et al, in Toxicology and Applied Pharmacology, 22:672 (1972), that is, yeast-induced fever in rats. Each test group consisted of ten male Sprague-Dawley rats (Charles River Laboratories), weighing 180-225 grams each. Eighteen hours prior to compound administration the rats were weighed and body temperatures were recorded. Food was removed with water available ad libitum. […]
Test compounds suspended in 0.25% methylcellulose (0.25% MC) or olive oil were administered orally by gavage nineteen hours following the yeast injection. Body temperatures were taken and recorded one hour after compound administration. […] The mean temperature of the compound-treated groups, positive control group (Aspirin) and negative control group (vehicle) were calculated at 18 hours and 20 hours. The data was analyzed statistically using a paired-samples Student's t-Test.

[3] = test system: Adjuvant arthritis (hind paw edema); assay: Adjuvant Arthritis Assay; Developing; type: in vivo, female Lewis rats; conditions: Rattus norvegicus, 96 h, dosed once daily for 4 days in 0.25% methylcellulose, inhibition of hind paw edema on fifth day
Description: Anti-Inflammatory: This activity was evaluated via a modification of the Adjuvant Arthritis Assay (AA) described by S. […] This assay measures the ability of the test compound to antagonize local edema, a characteristic of the inflammatory response. […] The left and right rear paws of female Lewis rats (Charles River Laboratories) weighing 160-180 grams each were measured by mercury displacement prior to injection (Day Zero). Adjuvant arthritis was induced in this rat colony by subcutaneous injection of Mycobacterium butyricum (0.75 mg in 0.1 ml light mineral oil, Fisher) using an automated Cornwall syringe. On days 11-15 post-adjuvant the injected animals with 0.25 to 0.75 ml. paw edema were selected and distributed evenly, according to edema size, into control and experimental groups of ten rats each. Vehicle control and drug treatments were assigned to the groups at random. The assay was performed using a variable dose level for each test compound per kilogram per day in 0.25% methylcellulose vehicle. All animals were dosed once daily for 4 days and on the fifth day both hind paw volumes were again measured using mercury displacement. The hind paw edema was determined for each rat by subtracting the hind paw volume measured on Day Zero from the hind paw volume measured on the fifth day of the study. Group means were determined and the drug effect was calculate as percent inhibition of the hind paw edema according to the following equation: [formula] […] The known anti-inflammatory NAPROXEN was also tested for comparison purposes.

LD50 (acute toxicity) = conditions: rat, in vivo; printed after the oral four-day ulcerogenicity study in female Lewis rats
[4] = test system: Adjuvant arthritis (hind paw edema); assay: Adjuvant Arthritis Assay; Immunomodulatory; type: in vivo, Lewis female rats; conditions: 50 mg/kg, oral, Day 5 to 9; paw edema on Day 15
Description: Immunomodulatory: This activity was determined by using a Modified Adjuvant Assay procedure in which female rats were injected with Mycobacterium butyricum to induce hind paw edema. The test compounds were administered orally and the difference in volume between dosed and non-dosed paws was determined.
Lewis female rats were injected in the tail subcutaneously with Mycobacterium butyricum (0.75 mg in 0.1 ml light mineral oil, Fisher) on Day Zero. Prior to injection the volumes of the left and right rear paws were measured by mercury displacement. All rats were dosed orally with vehicle or test compounds on Day 5 to 9 inclusive. The volume of both hind paws were determined on Day 15 and the percent inhibitions were calculated based upon average edema on Day 15 relative to the edema mean in the control group.

[5] = test system: acetylcholine-induced writhing; assay: Acetylcholine Writhing Assay; type: in vivo, male CD-1 mice; conditions: Mus musculus, 0.75 h; oral by gavage, 45 minutes before intraperitoneal acetylcholine; writhes counted for 10 minutes
Description: Analgesic: The "Acetylcholine Writhing Assay" (ACH) of Collier et al [Nature; Vol. 204: page 1316 (1964)]was employed. In this study the test compounds were administered orally to mice and 45 minutes later the mice were injected with acetylcholine. The frequency of writhing was counted in each animal and the response elicited in the drug-treated mice was compared with the response of those given acetylcholine alone.
Analgesic activity was evaluated via the mouse acetylcholine writing test using a modification of the procedure described by Collier, et al in Nature (New Biol.) Vol. 204; page 1316 (1964) and Br. J. Pharmacol, Chemother, Vol. 32: page 295 (1968). Each test group consisted of ten male CD-1 mice (Charles River Laboratories) weighing 18-28 grams each. Test compounds suspended in a mixture of 0.25% methylcellulose solution in […] were administered orally by gavage and forty five minutes later the mice were injected intraperitoneally with acetylcholine (0.55 mg/ml in 0.25% methylcellulose). The number of writhes in each group of mice were counted for 10 minutes immediately following the injection of acetylcholine and the percent inhibition was calculated as follows: [formula] Four dose levels were used to calculate the ED50 of the test compound.

[6] = test system: Adjuvant arthritis (paw edema); assay: Adjuvant Arthritis Assay; Established; type: in vivo, rats; conditions: Rattus norvegicus, 552 h; oral, once daily on days 19-22 post adjuvant; paw volume on day 23
Description: In this assay the differences between dosed and non-dosed paw values were determined postadjuvant. […] On day 19 post adjuvant all rats were evenly distributed according to edema size. Doses of treatment or vehicle were administered orally to all rats once daily on days 19-22 inclusive. Final paw volumes were determined on day 23 post adjuvant.

In the case of `CC(C)(C)c1cc(S(=O)(=O)c2ccccc2)cc(C(C)(C)C)c1O` [2,6-di-(tert-butyl)-4-(phenylsulfonyl)phenol], the anti-inflammatory activity [1] is given as “absence of anti-inflammatory activity”.
For `CC(C)(C)c1cccc(C(C)(C)C)c1O` [2,6-di-(tert-butyl)phenol], the anti-inflammatory activity [1] is listed as “absence of anti-inflammatory activity”.
For `CC(C)(C)c1cc(C=Cc2ccccn2)cc(C(C)(C)C)c1O` [2-[2-(3',5'-di-tert-butyl-4'-hydroxyphenyl)ethenyl]pyridine], the “effectiveness in the treatment of tumors” value [2] is given as “effective in the treatment of tumors”.
In the case of `Cc1cc(C(C)(C)C)c(O)c(C(C)(C)C)c1` [3,5-di(tert-butyl)-4-hydroxytoluene], the anti-inflammatory activity [1] is listed as “little or no value as an anti-inflammatory agent”.
In the case of `CC(C)(C)c1cc(C(=O)c2ccccc2Cl)cc(C(C)(C)C)c1O` [4-(2-chlorobenzoyl)-2,6-di-(tert-butyl)phenol], the anti-inflammatory activity [1] is listed as “absence of anti-inflammatory activity”.
In the case of `CC(C)(C)c1cc(C(=O)c2cc(C(=O)O)ccc2Cl)cc(C(C)(C)C)c1O` [4-(5-carboxy-2-chlorobenzoyl)-2,6-di-(tert-butyl)phenol], the anti-inflammatory activity [1] is listed as “absence of anti-inflammatory activity”.
For `CC(C)(C)c1cc(C=Cc2ccncc2)cc(C(C)(C)C)c1O` [4-[2-(3',5'-di-tert-butyl-4'-hydroxyphenyl)ethenyl]pyridine], the “effectiveness in the treatment of tumors” value [2] is listed as “effective in the treatment of tumors”.
For `CC(=O)c1cc(C(C)(C)C)c(O)c(C(C)(C)C)c1` [4-acetyl-2,6-(di-tert-butyl)phenol], the anti-inflammatory activity [1] is given as “absence of anti-inflammatory activity”.
For `CC(C)(C)c1cc(C(N)=O)cc(C(C)(C)C)c1O` [4-carboxamido-2,6-di-(tert-butyl)phenol], the anti-inflammatory activity [1] is listed as “absence of anti-inflammatory activity”.
In the case of `CCCCCCCCc1cc(C(C)(C)C)c(O)c(C(C)(C)C)c1` [4-n-octyl-2,6-di-(tert-butyl)phenol], the anti-inflammatory activity [1] is listed as “absence of anti-inflammatory activity”.
In the case of `CC(=O)Oc1ccccc1C(=O)O` [Aspirin], the “Change in Temperature, 18-20 Hour Period” value (yeast-induced fever) is reported as -2.05 °C.
In the case of `CC(C)(C)c1cc(N2CCCC2=O)cc(C(C)(C)C)c1O` [Example 1, 1-(3,5-Di-tert-Butyl-4-Hydroxyphenyl)Pyrrolidin-2-One], the ED50 [3] is reported as 21 mg/kg, the LD50 (LD50 (acute toxicity)) is reported as greater than 1000 mg/kg and the “% Inhibition (Adjuvant Arthritis Data-Immunomodulatory)” value [4] is reported as 39%. It also gave an ED50 [5] of 13 mg/kg and an ED50 [6] of 36 mg/kg.
In the case of `CC(C)(C)c1cc(N2CCCCC2=O)cc(C(C)(C)C)c1O` [Example 2, 1-(3,5-Di-tert-Butyl-4-Hydroxyphenyl)Piperidin-2-One], the ED50 [3] is reported as 34 mg/kg.
`COc1ccc2cc([C@H](C)C(=O)O)ccc2c1` [NAPROXEN] showed an ED50 [3] of 28 mg/kg, an ED50 [5] of 6.2 mg/kg and an ED50 [6] of 28 mg/kg.
